ChEMBL document CHEMBL5291721, “A preclinical secondary pharmacology resource illuminates target-adverse drug reaction associations of marketed drugs” (Nat Commun, 2023)

How the values were obtained:
[1] = molecular target: T1, Muscarinic acetylcholine receptor M2 (Homo sapiens, UniProt P08172); format: functional, cell-based
T1 sequence (P08172 whole entry): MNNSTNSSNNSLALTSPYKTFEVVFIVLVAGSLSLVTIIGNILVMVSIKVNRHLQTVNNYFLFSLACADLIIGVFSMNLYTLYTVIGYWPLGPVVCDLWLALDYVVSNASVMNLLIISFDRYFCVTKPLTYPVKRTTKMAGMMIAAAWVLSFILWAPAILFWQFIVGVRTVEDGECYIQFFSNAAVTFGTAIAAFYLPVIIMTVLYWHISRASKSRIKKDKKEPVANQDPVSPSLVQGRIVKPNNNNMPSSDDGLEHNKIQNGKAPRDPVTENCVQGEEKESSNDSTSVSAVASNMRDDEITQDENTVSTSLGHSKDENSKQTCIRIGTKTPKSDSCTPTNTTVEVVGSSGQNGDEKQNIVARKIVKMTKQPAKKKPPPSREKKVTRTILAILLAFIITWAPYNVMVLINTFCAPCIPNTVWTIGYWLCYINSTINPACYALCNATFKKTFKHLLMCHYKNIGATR

[2] = molecular target: Delta-type opioid receptor (Homo sapiens, UniProt P41143)
Chain of Delta-type opioid receptor (P41143 whole entry): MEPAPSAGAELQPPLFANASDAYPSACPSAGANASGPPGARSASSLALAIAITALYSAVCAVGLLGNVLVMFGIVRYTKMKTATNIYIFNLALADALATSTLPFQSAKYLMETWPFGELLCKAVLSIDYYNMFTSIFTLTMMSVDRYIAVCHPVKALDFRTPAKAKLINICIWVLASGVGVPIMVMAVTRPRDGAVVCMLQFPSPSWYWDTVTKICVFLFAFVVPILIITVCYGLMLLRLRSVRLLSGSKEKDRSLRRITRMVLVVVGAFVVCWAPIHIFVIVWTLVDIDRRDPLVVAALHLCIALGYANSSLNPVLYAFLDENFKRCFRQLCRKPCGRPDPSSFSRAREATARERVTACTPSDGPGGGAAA

Adenosine receptor A2a = Adenosine receptor A2a (Homo sapiens, UniProt P29274)
Chain of Adenosine receptor A2a (P29274 whole entry): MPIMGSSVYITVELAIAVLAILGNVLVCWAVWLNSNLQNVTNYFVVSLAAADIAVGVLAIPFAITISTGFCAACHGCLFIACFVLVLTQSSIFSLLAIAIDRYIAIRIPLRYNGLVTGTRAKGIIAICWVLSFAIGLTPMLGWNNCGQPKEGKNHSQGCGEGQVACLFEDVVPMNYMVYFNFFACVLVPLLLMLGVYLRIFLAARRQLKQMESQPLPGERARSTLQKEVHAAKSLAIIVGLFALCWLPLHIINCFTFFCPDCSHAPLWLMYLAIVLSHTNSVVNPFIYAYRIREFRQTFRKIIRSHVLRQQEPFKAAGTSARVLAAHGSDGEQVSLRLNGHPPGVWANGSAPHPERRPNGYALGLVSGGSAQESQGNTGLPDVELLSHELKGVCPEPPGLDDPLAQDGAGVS

[3] = molecular target: Beta-2 adrenergic receptor (Homo sapiens, UniProt P07550)
Chain of Beta-2 adrenergic receptor (P07550 whole entry): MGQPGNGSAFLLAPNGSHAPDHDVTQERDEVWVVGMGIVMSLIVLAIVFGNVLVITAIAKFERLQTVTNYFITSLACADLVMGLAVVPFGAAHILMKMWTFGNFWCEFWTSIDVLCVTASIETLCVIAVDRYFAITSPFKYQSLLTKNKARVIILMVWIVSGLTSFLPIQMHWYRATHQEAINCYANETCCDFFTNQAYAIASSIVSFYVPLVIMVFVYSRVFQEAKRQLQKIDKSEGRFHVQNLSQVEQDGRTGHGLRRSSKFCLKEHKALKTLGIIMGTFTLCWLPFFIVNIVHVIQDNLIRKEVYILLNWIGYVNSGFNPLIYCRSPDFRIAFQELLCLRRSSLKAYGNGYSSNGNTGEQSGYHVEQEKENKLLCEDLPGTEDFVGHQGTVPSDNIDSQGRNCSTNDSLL

D(3) dopamine receptor = D(3) dopamine receptor (Homo sapiens, UniProt P35462)
Chain of D(3) dopamine receptor (P35462 whole entry): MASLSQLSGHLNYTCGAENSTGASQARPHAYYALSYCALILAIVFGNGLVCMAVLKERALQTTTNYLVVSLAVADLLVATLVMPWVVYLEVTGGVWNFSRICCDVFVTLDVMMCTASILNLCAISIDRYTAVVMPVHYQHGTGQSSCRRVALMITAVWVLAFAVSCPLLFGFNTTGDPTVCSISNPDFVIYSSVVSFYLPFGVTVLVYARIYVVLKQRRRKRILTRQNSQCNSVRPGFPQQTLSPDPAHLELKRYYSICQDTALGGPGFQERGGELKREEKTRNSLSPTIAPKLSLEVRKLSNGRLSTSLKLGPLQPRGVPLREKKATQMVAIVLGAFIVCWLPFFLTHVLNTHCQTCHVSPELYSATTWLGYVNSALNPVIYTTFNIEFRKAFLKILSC

[4] = molecular target: T2, Neuropeptide Y receptor type 1 (Homo sapiens, UniProt P25929); settings: read-out: AC50
T2 sequence (P25929 whole entry): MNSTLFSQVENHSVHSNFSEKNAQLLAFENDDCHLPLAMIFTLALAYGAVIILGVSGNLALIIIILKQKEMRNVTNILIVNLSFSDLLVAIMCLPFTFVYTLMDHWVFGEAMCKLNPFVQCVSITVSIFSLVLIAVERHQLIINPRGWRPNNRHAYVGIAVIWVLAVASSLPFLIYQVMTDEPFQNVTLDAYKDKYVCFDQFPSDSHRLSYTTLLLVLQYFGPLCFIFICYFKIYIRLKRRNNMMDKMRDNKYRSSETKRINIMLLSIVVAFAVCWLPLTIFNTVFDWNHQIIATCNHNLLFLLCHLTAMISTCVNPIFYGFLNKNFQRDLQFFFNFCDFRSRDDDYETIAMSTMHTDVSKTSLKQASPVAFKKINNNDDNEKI

[5] = molecular target: Beta-1 adrenergic receptor (Homo sapiens, UniProt P08588); format: functional
Chain of Beta-1 adrenergic receptor (P08588 whole entry): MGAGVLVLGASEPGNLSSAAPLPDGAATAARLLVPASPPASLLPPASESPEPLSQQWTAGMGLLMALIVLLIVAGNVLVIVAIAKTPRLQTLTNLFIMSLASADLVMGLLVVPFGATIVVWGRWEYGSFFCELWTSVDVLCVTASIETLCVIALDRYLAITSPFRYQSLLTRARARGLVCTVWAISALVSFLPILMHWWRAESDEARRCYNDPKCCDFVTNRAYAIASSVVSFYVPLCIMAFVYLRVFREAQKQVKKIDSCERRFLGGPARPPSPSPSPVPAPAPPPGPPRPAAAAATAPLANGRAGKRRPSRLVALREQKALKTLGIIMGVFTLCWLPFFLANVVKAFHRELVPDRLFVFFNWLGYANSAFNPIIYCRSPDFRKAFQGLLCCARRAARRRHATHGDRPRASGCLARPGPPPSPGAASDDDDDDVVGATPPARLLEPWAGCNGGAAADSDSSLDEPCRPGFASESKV

[6] = molecular target: T3, Gastrin/cholecystokinin type B receptor (Homo sapiens, UniProt P32239)
T3 sequence (P32239 whole entry): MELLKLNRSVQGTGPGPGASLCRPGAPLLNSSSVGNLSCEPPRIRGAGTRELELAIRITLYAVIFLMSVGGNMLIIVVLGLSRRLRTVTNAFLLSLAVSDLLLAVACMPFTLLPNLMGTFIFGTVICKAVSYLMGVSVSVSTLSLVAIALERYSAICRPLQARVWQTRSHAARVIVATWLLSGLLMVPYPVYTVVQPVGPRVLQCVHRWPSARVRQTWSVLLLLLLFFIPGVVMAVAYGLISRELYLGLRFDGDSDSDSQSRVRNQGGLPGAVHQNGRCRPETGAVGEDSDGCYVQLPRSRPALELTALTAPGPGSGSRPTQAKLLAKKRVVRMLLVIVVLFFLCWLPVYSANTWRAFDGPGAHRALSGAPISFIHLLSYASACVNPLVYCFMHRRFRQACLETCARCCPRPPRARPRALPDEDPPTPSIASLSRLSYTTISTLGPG

Progesterone receptor = molecular target: T4, Progesterone receptor (Homo sapiens, UniProt P06401); format: functional
T4 sequence (P06401 whole entry): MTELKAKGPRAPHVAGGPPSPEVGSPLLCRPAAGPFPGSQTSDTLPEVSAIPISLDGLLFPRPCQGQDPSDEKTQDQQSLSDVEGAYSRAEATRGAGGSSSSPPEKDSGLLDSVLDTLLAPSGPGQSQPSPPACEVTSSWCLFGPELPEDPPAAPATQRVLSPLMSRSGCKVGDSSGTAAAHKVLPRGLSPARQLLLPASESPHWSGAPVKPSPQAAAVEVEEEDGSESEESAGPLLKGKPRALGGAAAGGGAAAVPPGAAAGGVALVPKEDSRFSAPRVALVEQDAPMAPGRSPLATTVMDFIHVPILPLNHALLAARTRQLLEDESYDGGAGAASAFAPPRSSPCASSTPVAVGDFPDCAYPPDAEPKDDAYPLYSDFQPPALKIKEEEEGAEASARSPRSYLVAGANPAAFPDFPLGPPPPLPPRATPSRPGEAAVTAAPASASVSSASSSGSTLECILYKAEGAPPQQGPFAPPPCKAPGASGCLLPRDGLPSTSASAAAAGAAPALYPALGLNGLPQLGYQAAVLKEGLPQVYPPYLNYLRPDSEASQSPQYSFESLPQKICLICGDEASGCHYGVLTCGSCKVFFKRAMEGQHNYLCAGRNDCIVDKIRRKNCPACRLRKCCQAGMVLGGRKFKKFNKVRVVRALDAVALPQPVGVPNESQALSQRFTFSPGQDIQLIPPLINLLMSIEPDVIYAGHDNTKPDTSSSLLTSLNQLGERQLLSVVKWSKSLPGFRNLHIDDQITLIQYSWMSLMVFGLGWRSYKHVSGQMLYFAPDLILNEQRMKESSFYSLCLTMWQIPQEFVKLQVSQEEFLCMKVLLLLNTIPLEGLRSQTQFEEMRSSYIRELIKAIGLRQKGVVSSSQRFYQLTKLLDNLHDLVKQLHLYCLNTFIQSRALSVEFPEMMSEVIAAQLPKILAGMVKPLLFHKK

[7] = molecular target: T5, Cholecystokinin receptor type A (Homo sapiens, UniProt P32238)
T5 sequence (P32238 whole entry): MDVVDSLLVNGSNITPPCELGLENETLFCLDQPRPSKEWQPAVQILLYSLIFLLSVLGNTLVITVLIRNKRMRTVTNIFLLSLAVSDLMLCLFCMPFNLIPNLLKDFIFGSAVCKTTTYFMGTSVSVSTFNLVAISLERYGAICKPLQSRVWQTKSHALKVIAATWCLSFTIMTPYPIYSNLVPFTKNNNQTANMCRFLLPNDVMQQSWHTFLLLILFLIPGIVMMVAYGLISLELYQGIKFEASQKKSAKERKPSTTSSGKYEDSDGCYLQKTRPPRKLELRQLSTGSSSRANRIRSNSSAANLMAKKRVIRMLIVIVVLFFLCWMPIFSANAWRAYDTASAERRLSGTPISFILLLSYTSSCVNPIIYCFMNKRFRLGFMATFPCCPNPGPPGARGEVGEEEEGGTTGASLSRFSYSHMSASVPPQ
Also: assay procedure not described here.

AC50 [1]: > 30 µM | AC50 [2]: > 30 µM | AC50 (Adenosine receptor A2a): > 30 µM | AC50 [3]: > 30 µM | AC50 (D(3) dopamine receptor): 0.36 µM | AC50 [4]: > 30 µM | AC50 [5]: > 30 µM | AC50 [6]: > 30 µM | AC50 (Progesterone receptor): > 30 µM | AC50 [7]: > 30 µM
SMILES: CCN(CC)CCNC(=O)c1cc(S(C)(=O)=O)ccc1OC [TIAPRIDE]
